US7125986B2, “Penicillanic acid derivative compounds and methods of making” (Southern Methodist University Foundation for Research, priority 1997, dated 2006)
Counter-ions that a name gives are not always drawn. Like-named read-outs stand apart in the source and are kept apart here.

Tests used:
[1] = target: β-lactamase of Enterobacter cloacae P99 (Enterobacter cloacae, UniProt P05364); assay: β-lactamase inhibition, nitrocefin hydrolysis (P99); format: biochemical; conditions: for β-lactamase inhibiting activity greater than compound 9 by a factor, P99: factor relative to compound 9
Description: (§1) The IC50 value of each compound was determined as follows. Following a 10 minute incubation of a dilute solution of enzyme (2.56 nM) and inhibitor (<0.64 μM), a 50 μL aliquot of the incubation mixture was further diluted into 1 mL nitrocefin (a substrate) solution, and the rate of hydrolysis was measured during a 1 minute period by monitoring the absorbance of nitrocefin as a function of time.

TEM-1 β-lactamase = TEM-1 β-lactamase (Escherichia coli, UniProt P62593); assay: β-lactamase inhibition, nitrocefin hydrolysis (TEM-1); format: biochemical
Description: as §1

[2] = 10 minute incubation of enzyme (2.56 nM) and inhibitor, nitrocefin substrate, read-out: IC50 (uM) Ent. cloacae P99
[3] = 10 minute incubation of enzyme (2.56 nM) and inhibitor, nitrocefin substrate, read-out: IC50 (uM) TEM-1

Chain of β-lactamase of Enterobacter cloacae P99 (P05364 21-381): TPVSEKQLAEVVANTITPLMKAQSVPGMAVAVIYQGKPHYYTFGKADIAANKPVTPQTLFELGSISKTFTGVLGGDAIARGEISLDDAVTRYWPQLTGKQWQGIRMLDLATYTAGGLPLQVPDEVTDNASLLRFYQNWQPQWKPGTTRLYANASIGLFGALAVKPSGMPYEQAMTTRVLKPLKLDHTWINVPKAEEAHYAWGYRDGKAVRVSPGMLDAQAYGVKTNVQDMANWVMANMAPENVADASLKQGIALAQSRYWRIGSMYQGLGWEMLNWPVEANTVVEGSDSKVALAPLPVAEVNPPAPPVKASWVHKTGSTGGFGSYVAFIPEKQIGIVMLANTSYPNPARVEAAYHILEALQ
Chain of TEM-1 β-lactamase (P62593 24-286 limits assumed): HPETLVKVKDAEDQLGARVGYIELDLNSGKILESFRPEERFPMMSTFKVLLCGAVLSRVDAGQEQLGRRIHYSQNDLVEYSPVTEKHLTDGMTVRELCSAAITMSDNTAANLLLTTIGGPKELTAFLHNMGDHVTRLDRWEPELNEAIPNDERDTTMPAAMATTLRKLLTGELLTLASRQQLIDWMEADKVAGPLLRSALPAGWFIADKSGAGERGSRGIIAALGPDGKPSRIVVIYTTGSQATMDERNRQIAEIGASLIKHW

SMILES | IC50 [1, 2] | IC50 (TEM-1 β-lactamase; [3]) | also measured
C[C@]1(C=CC#N)[C@H](C(=O)O)N2C(=O)/C(=C/C(=O)O)[C@H]2S1(=O)=O (mixture of isomers) [Compound 17, Disodium Salt of 2β-[(E/Z)-(cyanoethenyl)]-6-[(Z)-carboxymethylene]-penicillinate 1,1-dioxide] | 6.76 µM |  | 
CC(=O)OC[C@@]1(C)[C@H](C(=O)O)N2C(=O)/C(=C/C(=O)O)[C@H]2S1(=O)=O [Compound 8a, Disodium salt of 2β-(acetoxymethyl)-6-[(Z)-carboxymethylene]-penicillinic acid-1,1-dioxide] | 0.383 µM | 0.213 µM | β-lactamase inhibiting activity greater than compound 9 by a factor, P99 [1]: ~2
CC1(COC(=O)CCl)C(C(=O)O)N2C(=O)C(=CC(=O)O)C2S1(=O)=O (stereo not drawn) [Compound 8b, Disodium salt of 2β-(chloroacetoxymethyl)-6-[(Z)-carboxymethylene]-penicillinate 1,1-dioxide] |  | 0.19 µM | 
C[C@]1(COC=O)[C@H](C(=O)O)N2C(=O)/C(=C/C(=O)O)[C@H]2S1(=O)=O [Compound 8c, Disodium salt of 2β-(formyloxymethyl)-6-[(Z)-carboxymethylene]-penicillinate 1,1-dioxide] | 0.3 µM |  | β-lactamase inhibiting activity greater than compound 9 by a factor, P99 [1]: ~2
C[C@]1(COC(=O)Cc2ccccc2)[C@H](C(=O)O)N2C(=O)/C(=C/C(=O)O)[C@H]2S1(=O)=O [Compound 8d, Disodium salt of 2β-(phenylacetoxymethyl)-6-[(Z)-carboxymethylene]-penicillinate 1,1-dioxide] |  |  | IC50 [1]: 0.54 µM; IC50 (TEM-1 β-lactamase): 0.015 µM
COC(=O)C=C1C(=O)N2C(C(=O)O)C(C)(COC(C)=O)S(=O)(=O)C12 (stereo not drawn) [Compound 8e, Sodium salt of 2β-(acetoxymethyl)-6-[(Z)-(methoxycarbonyl)methylene]-penicillinic acid 1,1 dioxide] | 2.66 µM |  | 
Cn1nnnc1SCC(=O)OCC1(C)C(C(=O)O)N2C(=O)C(=CC(=O)O)C2S1(=O)=O (stereo not drawn) [Compound 8g, Disodium salt of 2β-[[(1-methyl-1H-tetrazol-5-yl)thio]acetoxymethyl]-6-[(Z)-carboxymethylene]penicillinate 1,1-dioxide] | 0.64 µM | 0.23 µM | 
COC(=O)/C=C1/C(=O)N2[C@@H](C(=O)O)[C@](C)(COC(=O)CSc3nnnn3C)S(=O)(=O)[C@H]12 [Compound 8h, Sodium salt of 2β-[[(1-methyl-1H-tetrazol-5-yl)thio]acetoxymethyl]-6-[(Z)-(methoxycarbonyl)methylene]penicillinate 1,1-dioxide] | 3.69 µM |  | 
CC1(COC(=O)Cc2ccc(O)c(O)c2)C(C(=O)O)N2C(=O)C(=CC(=O)O)C2S1(=O)=O (stereo not drawn) [Compound 8i, Disodium Salt of 2β-[(3′,4′-Dihydroxyphenyl)acetoxy]methyl-6-[(Z)-carboxymethylene]-1,1-dioxopenicillinate] | 0.37 µM |  | 
CC(C)(C)OC(=O)/C=C1/C(=O)N2[C@@H](C(=O)O)[C@](C)(CCl)S(=O)(=O)[C@H]12 [Compound 12a, Sodium salt of 2β-(chloromethyl)-6-[(Z)-(t-butoxycarbonyl)methylene]-penicillinic acid 1,1 dioxide] | 7.62 µM | 39 µM | 
COC(=O)/C=C1/C(=O)N2[C@@H](C(=O)O)[C@](C)(CCl)S(=O)(=O)[C@H]12 [Compound 12b, Sodium salt of 2β-(chloromethyl)-6-[(Z)-(methoxycarbonyl)methylene]-penicillanic acid 1,1 dioxide] | 6.96 µM |  | 
CC1(CCl)C(C(=O)O)N2C(=O)/C(=C/C(=O)O)C2S1(=O)=O (stereo not drawn) [Compound 12c, Disodium salt of 2β-(chloromethyl)-6-[(Z)-carboxymethylene]penicillinate 1,1-dioxide] | 105 µM | 120 µM | 
CC(=O)OCC1(C)C(C(=O)O)N2C(=O)C(=Cc3ccccn3)C2S1(=O)=O (stereo not drawn) [Compound 29a, Sodium 2β-(acetoxymethyl)-1,1-dioxo-6-[(Z)-2′-pyridylmethylene]penicillinate] | 0.062 µM | 0.004 µM | β-lactamase inhibiting activity against P99 (in words) [1]: potent; β-lactamase inhibiting activity against TEM-1 (in words) (TEM-1 β-lactamase): potent
C[C@]1(COC(=O)Cc2ccccc2)[C@H](C(=O)O)N2C(=O)/C(=C/c3ccccn3)[C@H]2S1(=O)=O [Compound 29b, Sodium 1,1-Dioxo-2β-(phenylacetoxy)methyl-6-[(Z)-2′-pyridylmethylene]penicillinate] |  |  | β-lactamase inhibiting activity against P99 (in words) [1]: potent; IC50 (TEM-1 β-lactamase): 0.39 µM; β-lactamase inhibiting activity against TEM-1 (in words) (TEM-1 β-lactamase): potent
